Like-named read-outs stand apart in the source and are kept apart here. Marks after values point to notes of the source that are not given here.
Key:
[1] = LogP by HPLC on reversed phase columns (EEC directive 79/831 Annex V.A8); type: physicochemical; settings: for chromatographic logP: reversed phase HPLC column
Protocol: [table] If more than one Log P value is available within the same method, all the values are given and separated by “+”. […] Lambda-max-values were determined using UV-spectra from 200 nm to 400 nm and the peak values of the chromatographic signals.

[2] = tested on: Phakosporra pachirrhizi; test: Example D: fungicidal activity against Phakosporra pachirrhizi (spore germination, 96-well imaging); type: cell-based; settings: 30 ppm of active ingredient; wild-type spores, 4 hours at 21° C.; read-out: efficacy (inhibition of the fungal germination)
Protocol: Example D: Fungicidal Activity Against Phakosporra pachirrhizi
Cryo-conserved wild-type spores of the biotroph Phakosporra pachirrhizi are humidified in dedicated chamber overnight at 18° C. in the dark. The next day, a solution of spores at 7×10^3 sp/ml is prepared in a water based growth medium (DH2O+0.2 mM MOPS at pH 7+0.01% Tween 20) and spores are distributed in a 96-MTPS (final volume of 200 μL per well) thanks to a dispenser robot. Each molecule is tested at 10 doses (from 30 to 0.002 ppm final concentration) and accordingly 1.2 μL of each dilution is transferred in dedicated well to end-up with a final concentration of 0.6% DMSO. Wild-type spores and molecules are incubated for 4 hours at 21° C., and 6 images par well are then acquired with Transmitted Light images (Image Xpress Micro microscope, Molecular Devices, Objective 10λ, 6 images per well). Detection and quantification of the number of germinated spores per image is performed with a dedicated in-house developed algorithm (MetaXpress software, Molecular Devices).

[3] = tested on: Colletotrichum lindemuthianum; test: Example E: Colletotrichum lindemuthianum in vitro cell test; type: cell-based; settings: 144 h, 20 ppm of active ingredient, liquid culture, 6 days incubation, read-out: efficacy (inhibition of fungal growth)
Protocol: Example E: Colletotrichum lindemuthianum In Vitro Cell Test
• Solvent: DMSO Culture medium: 14.6 g anhydrous D-glucose (VWR), 7.1 g Mycological Peptone (Oxoid), 1.4 g granulated Yeast Extract (Merck), QSP 1 liter • Inoculum: spores suspension
Active ingredients were solubilized in DMSO and the solution used to prepare the required range of concentrations. The final concentration of DMSO used in the assay was 1%.
A spore suspension of C. lindemuthianum was prepared and diluted to the desired spore density.
The active ingredients were evaluated for their ability to inhibit spores germination and mycelium growth in liquid culture assay. The compounds were added in the desired concentration to the culture medium with spores. After 6 days incubation, fungi-toxicity of compounds was determined by spectrometric measurement of mycelium growth. Inhibition of fungal growth was determined by comparing the absorbance values in wells containing the active ingredient with the absorbance in control wells without active ingredient.

[4] = method [a]: LC-UV, acidic range, 0.1% formic acid in water and acetonitrile as eluent

Row | Structure (SMILES) | LogP [1] | further results
1 | FC(F)(F)c1nc(-c2ccc3nc[nH]c3c2)no1 [Compound I-002] | 1.46^[a] | –
2 | Cn1cnc2cc(-c3noc(C(F)(F)F)n3)ccc21 [Compound I-003] | 1.70^[a] | –
3 | Cn1cnc2ccc(-c3noc(C(F)(F)F)n3)cc21 [Compound I-004] | 1.67^[a] | –
4 | FC(F)(F)c1nc(-c2ccc3[nH]ncc3c2)no1 [Compound I-005, 5-[5-(Trifluoromethyl)-1,2,4-oxadiazol-3-yl]-1H-indazole] | – | chromatographic logP [1, 4]: 2.68; inhibition at 30 ppm [2]: 90 to 100%; inhibition at 20 ppm [3]: 90 to 100%
5 | FC(F)(F)c1nc(-c2ccc3cn[nH]c3c2)no1 [Compound I-006] | 2.70^[a] | –
6 | FC(F)(F)c1nc(-c2ccc3cn(Cc4ccccc4)nc3c2)no1 [Compound I-008] | 4.03^[a] | –
7 | CCn1cc2cc(-c3noc(C(F)(F)F)n3)ccc2n1 [Compound I-010] | 3.15^[a] | –
8 | CCn1ncc2cc(-c3noc(C(F)(F)F)n3)ccc21 [Compound I-011] | 3.67^[a] | –
9 | FC(F)(F)c1nc(-c2ccc3nn(Cc4ccccc4)cc3c2)no1 [Compound I-012] | 4.03^[a] | –
10 | COCCn1ncc2cc(-c3noc(C(F)(F)F)n3)ccc21 [Compound I-013, 1-(2-Methoxyethyl)-5-[5-(trifluoromethyl)-1,2,4-oxadiazol-3-yl]-1H-indazole] | – | chromatographic logP [1, 4]: 3.31; inhibition at 30 ppm [2]: 80 to 89%; inhibition at 20 ppm [3]: 80 to 89%
11 | COCCn1cc2cc(-c3noc(C(F)(F)F)n3)ccc2n1 [Compound I-014, 2-(2-Methoxyethyl)-5-[5-(trifluoromethyl)-1,2,4-oxadiazol-3-yl]-2H-indazole] | – | chromatographic logP [1, 4]: 2.96; inhibition at 30 ppm [2]: 70 to 79%; inhibition at 20 ppm [3]: 80 to 89%
12 | CCn1cc2ccc(-c3noc(C(F)(F)F)n3)cc2n1 [Compound I-015] | 3.21^[a] | –
13 | COCCn1ncc2ccc(-c3noc(C(F)(F)F)n3)cc21 [Compound I-016] | 3.35^[a] | –
14 | COCCn1cc2ccc(-c3noc(C(F)(F)F)n3)cc2n1 [Compound I-017] | 3.00^[a] | –
15 | CONC1CCCc2cc(-c3noc(C(F)(F)F)n3)ccc21 (centres unmarked) [Compound I-018, O-Methyl-N-{6-[5-(trifluoromethyl)-1,2,4-oxadiazol-3-yl]-1,2,3,4-tetrahydronaphthalen-1-yl}hydroxylamine] | – | chromatographic logP [1, 4]: 4.08
16 | CON(C(=O)C1CC1)C1CCCc2cc(-c3noc(C(F)(F)F)n3)ccc21 (centres unmarked) [Compound I-019] | 4.44^[a] | –
17 | COCCC(=O)N(OC)C1CCCc2cc(-c3noc(C(F)(F)F)n3)ccc21 (centres unmarked) [Compound I-021] | 3.96^[a] | –
18 | CON(C(=O)c1ccccc1)C1CCCc2cc(-c3noc(C(F)(F)F)n3)ccc21 (centres unmarked) [Compound I-022] | 4.72^[a] | –
19 | CCN(OC)C1CCCc2cc(-c3noc(C(F)(F)F)n3)ccc21 (centres unmarked) [Compound I-023, N-Ethyl-O-methyl-N-{6-[5-(trifluoromethyl)-1,2,4-oxadiazol-3-yl]-1,2,3,4-tetrahydronaphthalen-1-yl}hydroxylamine] | – | chromatographic logP [1, 4]: 6.04
20 | COC(=O)N(OC)C1CCCc2cc(-c3noc(C(F)(F)F)n3)ccc21 (centres unmarked) [Compound I-024] | 4.34^[a] | –
21 | COCCOC(=O)N(OC)C1CCCc2cc(-c3noc(C(F)(F)F)n3)ccc21 (centres unmarked) [Compound I-025] | 4.27^[a] | –
22 | COC(=O)N1CCc2ccc(-c3noc(C(F)(F)Cl)n3)cc2C1 [Compound I-026] | 3.83^[a] | –
23 | COC(=O)N1CCCc2cc(-c3noc(C(F)(F)Cl)n3)ccc21 [Compound I-027] | 4.27^[a] | –

Row | Structure (SMILES) | LogP [1] | further results
24 | COC(=O)N1CCCc2cc(-c3noc(C(F)(F)F)n3)ccc21 [Compound I-028] | 4.03^[a] | –
25 | CCC(=O)N1CCCc2cc(-c3noc(C(F)(F)Cl)n3)ccc21 [Compound I-029] | 3.90^[a] | –
26 | CCC(=O)N1CCCc2cc(-c3noc(C(F)(F)F)n3)ccc21 [Compound I-030] | 3.68^[a] | –
27 | CCC(=O)N1CCc2ccc(-c3noc(C(F)(F)F)n3)cc2C1 [Compound I-031] | 3.11^[a] | –
28 | COC(=O)N1CCc2ccc(-c3noc(C(F)(F)F)n3)cc2C1 [Compound I-032] | 3.59^[a] | –
29 | CCC(=O)N1CCc2ccc(-c3noc(C(F)(F)Cl)n3)cc2C1 [Compound I-033] | 3.31^[a] | –
30 | CN(C)C(=O)Oc1ccc2cc(-c3noc(C(F)(F)F)n3)ccc2c1 [Compound I-034] | 4.18^[a] | –
31 | O=C(c1cnc2ccc(-c3noc(C(F)(F)F)n3)cn12)C(F)(F)F [Compound I-035] | 3.41^[a] | –
32 | COCCNC(=O)c1cn2cc(-c3noc(C(F)(F)F)n3)ccc2n1 [Compound I-037] | 2.18^[a] | –
33 | CC(C)(C)OC(=O)N1CCc2cc(-c3noc(C(F)(F)F)n3)ccc2C1 [Compound I-038] | 4.93^[a] | –
34 | CCOC(=O)c1cn2cc(-c3noc(C(F)(F)F)n3)ccc2n1 [Compound I-039] | 2.59^[a] | –
35 | O=C(O)c1cn2cc(-c3noc(C(F)(F)F)n3)ccc2n1 [Compound I-040] | 1.41^[a] | –
36 | FC(F)(Cl)c1nc(-c2ccc3nc[nH]c3c2)no1 [Compound I-041] | 1.57^[a] | –
37 | Nc1ccc2cc(-c3noc(C(F)(F)F)n3)ccc2c1 [Compound I-042] | 3.47^[a] | –
38 | O=C(C1CC1)N1CCc2cc(-c3noc(C(F)(F)F)n3)ccc2C1 [Compound I-047] | 3.31^[a] | –
39 | COC(=O)N1CCc2cc(-c3noc(C(F)(F)F)n3)ccc2C1 [Compound I-048] | 3.63^[a] | –
40 | CC(=O)N1CCc2cc(-c3noc(C(F)(F)F)n3)ccc2C1 [Compound I-049] | 2.71^[a] | –
41 | O=C(Cc1ccccc1)N1CCc2cc(-c3noc(C(F)(F)F)n3)ccc2C1 [Compound I-050] | 3.83^[a] | –
42 | O=C(Nc1ccc2cc(-c3noc(C(F)(F)F)n3)ccc2c1)C(F)(F)F [Compound I-057] | – | LogP [1, 4]: 4.27^[a]
43 | FC(F)(Cl)c1nc(-c2ccc3ncn(Cc4ccccc4)c3c2)no1 [Compound I-058] | 3.23^[a] | –
44 | FC(F)(F)c1nc(-c2ccc3ncn(Cc4ccccc4)c3c2)no1 [Compound I-059] | 3.06^[a] | –
45 | Cn1cnc2cc(-c3noc(C(F)(F)Cl)n3)ccc21 [Compound I-060] | 1.86^[a] | –

Further lines, with some results ahead:

Row | LogP [1] | Structure (SMILES) | further results
46 | 3.62^[a] | ON=C1CCCc2cc(-c3noc(C(F)(F)F)n3)ccc21 [Compound I-001] | –
47 | 4.34^[a] | FC(F)(F)c1nc(-c2ccc3cnn(Cc4ccccc4)c3c2)no1 [Compound I-007] | –
48 | 4.39^[a] | FC(F)(F)c1nc(-c2ccc3c(cnn3Cc3ccccc3)c2)no1 [Compound I-009] | –
49 | 2.75^[a] | FC(F)(F)c1nc(-c2ccc3ncc(Br)n3c2)no1 [Compound I-036] | –
50 | 3.21^[a] | FC(F)(F)c1nc(-c2ccc3ncsc3c2)no1 [Compound I-043] | –
51 | 2.78^[a] | FC(F)(F)c1nc(-c2cc(Cl)c3nn[nH]c3c2)no1 [Compound I-044] | –
52 | 1.60^[a] | CCn1c(C)nc2cc(-c3noc(C(F)(F)F)n3)ccc21 [Compound I-045] | –
53 | 3.68^[a] | FC(F)(Cl)c1nc(-c2ccc3cc[nH]c3c2)no1 [Compound I-046] | –
54 | 3.45^[a] | COC(=O)Nc1cc2cc(-c3noc(C(F)(F)F)n3)ccc2cn1 [Compound I-051] | –
55 | 3.33^[a] | CCC(=O)Nc1cc2cc(-c3noc(C(F)(F)F)n3)ccc2cn1 [Compound I-052] | –
56 | 2.32^[a] | CC(=O)Nc1ccc(-c2noc(C(F)(F)F)n2)c2c1CCO2 [Compound I-053] | –
57 | 2.90^[a] | CC(=O)Nc1cc2cc(-c3noc(C(F)(F)F)n3)ccc2cn1 [Compound I-054] | –
58 | 2.31^[a] | Nc1cc2cc(-c3noc(C(F)(F)F)n3)ccc2cn1 [Compound I-055] | –
59 | 3.28^[a] | CC(=O)Nc1ccc(-c2noc(C(F)(F)F)n2)c2c1CCC2 [Compound I-056] | –
60 | 2.61^[a] | Fc1cc2[nH]ncc2cc1-c1noc(C(F)(F)F)n1 [Compound I-061] | –
61 | 2.78^[a] | Fc1cc2[nH]ncc2cc1-c1noc(C(F)(F)Cl)n1 [Compound I-062] | –
62 | 2.84^[a] | FC(F)(Cl)c1nc(-c2ccc3[nH]ncc3c2)no1 [Compound I-063] | –
63 | 4.28^[a] | Fc1cc2c(cnn2Cc2ccccc2)cc1-c1noc(C(F)(F)F)n1 [Compound I-064] | –
64 | 3.92^[a] | Fc1cc2nn(Cc3ccccc3)cc2cc1-c1noc(C(F)(F)F)n1 [Compound I-065] | –
65 | 4.11^[a] | Fc1cc2nn(Cc3ccccc3)cc2cc1-c1noc(C(F)(F)Cl)n1 [Compound I-066] | –
